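Five concentrations, 48 hours, 96-well plates. The concentration for 50% growth inhibition is given as GI50. TGI denotes the concentration required for complete inhibition of growth.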
Experiments:
Assay in all cases: NCI-60 cell line screen, 48 h
A549 NSCLC = test system: A549 NSCLC
HCT-116 colon = test system: HCT-116 colon
HCT-15 colon = test system: HCT-15 colon
K-562 leukemia = test system: K-562 leukemia
MOLT-4 leukemia = test system: MOLT-4 leukemia
OVCAR-8 ovarian = test system: OVCAR-8 ovarian
SF-295 CNS = test system: SF-295 CNS
HS 578T breast = test system: HS 578T breast
MALME-3M melanoma = test system: MALME-3M melanoma
A498 renal = test system: A498 renal

| SMILES | GI50 (A549 NSCLC) [µM] | TGI (A549 NSCLC) [µM] | GI50 (HCT-116 colon) [µM] | TGI (HCT-116 colon) [µM] | GI50 (HCT-15 colon) [µM] | TGI (HCT-15 colon) [µM] | GI50 (K-562 leukemia) [µM] | TGI (K-562 leukemia) [µM] | GI50 (MOLT-4 leukemia) [µM] | TGI (MOLT-4 leukemia) [µM] | GI50 (OVCAR-8 ovarian) [µM] | TGI (OVCAR-8 ovarian) [µM] | GI50 (SF-295 CNS) [µM] | TGI (SF-295 CNS) [µM] | TGI (HS 578T breast) [µM] | TGI (MALME-3M melanoma) [µM] | TGI (A498 renal) [µM] | GI50 (A498 renal) [µM] | GI50 (HS 578T breast) [µM] | GI50 (MALME-3M melanoma) [µM] |
| --- | --- | --- | --- | --- | --- | --- | --- | --- | --- | --- | --- | --- | --- | --- | --- | --- | --- | --- | --- | --- |
| CCCCCCCCCCCCN=C(N)c1ccc(N2CCN(c3ccc(C(N)=NCCCCCCCCCCCC)cc3)CC2)cc1 | 11.1 | 30.5 | 6.9 | 13.8 | 35 | > 50 | 6.82 | > 50 | 4.4 | > 50 | 11.4 | 40.1 | 7.66 | 18.1 | – | – | – | – | – | – |
| Oc1ccc(C(O)(c2ccccc2)c2ccccc2)c2ccccc12 | – | 11.9 | – | 10.7 | – | 2.9 | – | 23.5 | – | > 100 | – | – | – | 8.19 | 44.8 | 23.2 | – | – | – | – |
| CCCCCCCCCCCCCCCC(=O)OCCOCCOCCOCCOCCOC(=O)CCCCCCCCCCCCCCC | – | > 100 | – | > 100 | – | > 100 | – | > 100 | – | > 100 | – | > 100 | – | > 100 | – | > 100 | > 100 | – | – | – |
| CCCCNC(=S)OCCC(C)CCCC(C)C (stereo not given) | – | > 100 | – | > 100 | – | > 100 | – | > 100 | – | > 100 | – | > 100 | – | > 100 | – | > 100 | > 100 | – | – | – |
| COC1C=COC2(C)Oc3c(C)c(O)c4c(O)c(c(C5SCCS5)c(O)c4c3C2=O)NC(=O)/C(C)=C\C=CC(C)C(O)C(C)C(O)C(C)C(OC(C)=O)C1C (stereo not given) | – | 22.4 | – | 48.7 | – | 21.8 | – | – | – | 4.43 | – | 26 | – | 17.6 | 40.6 | 26.7 | 26.5 | – | – | – |
| COc1cc2c3c(n(CCCNCCCNCCN)c(=O)c2cc1OC)-c1cc2c(cc1C3=O)OCO2 | > 100 | > 100 | 23 | 57.9 | > 100 | > 100 | – | – | 10.9 | > 100 | 35.4 | > 100 | > 100 | > 100 | > 100 | – | > 100 | > 100 | 48.7 | – |
| Cc1ccc(N=C2N=C(N3CC(C)OC(C)C3)c3ccccc32)cc1 (stereo not given) | – | > 100 | – | 48.8 | – | > 100 | – | > 100 | – | 47.8 | – | > 100 | – | > 100 | – | 99.4 | 90.1 | – | – | – |
| N#CC1(C#N)C=CC(=C2OCC3CCCN23)C=C1 (stereo not given) | – | > 100 | – | > 100 | – | > 100 | – | > 100 | – | > 100 | – | > 100 | – | > 100 | – | > 100 | > 100 | – | – | – |
| COc1ccc(-c2cn(-c3ccc(OC)c(OC)c3)c(=O)[nH]2)cc1 | > 100 | > 100 | > 100 | > 100 | > 100 | > 100 | 37.4 | > 100 | 1.72 | > 100 | – | – | > 100 | > 100 | > 100 | > 100 | > 100 | > 100 | > 100 | > 100 |
| N#Cc1nc(C#N)c(Sc2ccccc2)c(Sc2ccccc2)c1Sc1ccccc1 | – | – | 0.301 | – | 0.574 | 3.21 | 1.55 | > 29.9 | 0.317 | – | 0.287 | 0.911 | 2.75 | > 29.1 | > 100 | 5.04 | 7.05 | 2.72 | 0.463 | 1.48 |
| C[N+](C)(C)c1cc[c]([Sn]([c]2ccc([N+](C)(C)C)cc2)([c]2ccc([N+](C)(C)C)cc2)[c]2ccc([N+](C)(C)C)cc2)cc1 | > 100 | > 100 | > 100 | > 100 | > 100 | > 100 | > 100 | > 100 | – | – | > 100 | > 100 | > 100 | > 100 | – | > 100 | > 100 | > 100 | – | > 100 |
| COc1ccc(O)cc1C(O)c1ccccc1 (stereo not given) | – | > 100 | – | > 100 | – | > 100 | – | > 100 | – | > 100 | – | > 100 | – | > 100 | – | > 100 | > 100 | – | – | – |
| COS(C)(=O)=O | – | > 2 | – | > 2 | – | > 2 | – | > 2 | – | > 2 | – | > 2 | – | – | > 2 | > 2 | > 2 | – | – | – |
| CCOC(=O)c1[nH]c2cc(OC)c(OC)cc2c1CN(C)C | – | > 100 | – | > 100 | – | > 100 | – | > 100 | – | > 100 | – | > 100 | – | > 100 | – | > 100 | > 100 | – | – | – |
| COc1ccc(/C=C/C(=O)c2c(-c3ccccc3)nn(C)c(=O)c2N2CCOCC2)cc1 | – | > 100 | – | > 100 | – | > 100 | – | > 100 | – | > 100 | – | > 100 | – | > 100 | – | – | > 100 | – | – | – |
| Nc1nc2c(-c3ccc([N+](=O)[O-])cc3)nnn2c2ccccc12 | – | > 100 | – | – | – | > 100 | – | > 100 | – | > 100 | – | > 100 | – | > 100 | – | > 100 | > 100 | – | – | – |
| NCCCNc1nc2ccccc2c2c(=O)c3cccc(Cl)c3sc12 | – | – | 1.34 | 2.7 | 1.64 | 3.16 | – | – | – | – | – | – | 1.71 | 3.14 | – | 3 | 2.74 | 1.02 | – | 1.57 |
| O=C(Nc1ccc(Cl)cc1C(=O)O)c1ccc([N+](=O)[O-])cc1 | – | > 100 | – | 36.9 | – | 46.3 | – | 90.4 | – | 61.7 | – | > 100 | – | 51.1 | – | 25.7 | 27.2 | – | – | – |
| COCCc1n(Cc2ccc3ccccc3c2)c2ccccc2[n+]1Cc1ccc2ccccc2c1 | 1.46 | 3.03 | – | – | – | – | – | – | – | – | – | – | – | – | – | 1.72 | 2.98 | 1.54 | – | 0.443 |
| COc1ccc2c(c1)CCc1cc(OC)ccc1/[N+]([O-])=[N+]\2[O-] | – | > 67.6 | – | – | – | 42.9 | – | > 72.1 | – | 20.3 | – | 33 | – | 37.6 | > 59.8 | 38.5 | 34.2 | – | – | – |

From PubChem BioAssay (NCI)
